≈ marks a conversion by molar mass, not a printed value.
Legend:
Format in all cases: cell-based
E. coli DC2 = experiment: microbe, parasite or virus in culture
Protocol: (§1) The minimum inhibiting concentrations (MICs) were determined for the following bacterial strains: Pseudomonas aeruginosa NCTC 10701, NCTC 10662, SG 137, ATCC 27853, KW 799 WT and KW 799/61, E. coli DCO, DC2 and ATCC 25922, Serratia marcescens SG 621; Salmonella gallinarum ATCC 9184, Klebsiella pneumoniae ATCC 10031 and SG 117.
(§2) With the test germs KW 799/WT and /61 of Pseudomonas and DCO and DC2 of E. coli, the effect of improved penetration capacity on the efficacy of the substances was investigated.

[1] = tested on: Pseudomonas aeruginosa Oxa6 (plasmid-coded β-lactamase); settings: concentration 100 μg/ml; P. aeruginosa OXA 6
[2] = tested on: Pseudomonas aeruginosa KW 799 WT; experiment: Microdilution test (MIC); settings: P. aeruginosa KW 799/WT
Protocol: as §1, §2

[3] = tested on: Pseudomonas aeruginosa KW 799/61; experiment: Microdilution test (MIC)
Protocol: as §1, §2

E. coli DC0 = experiment: Microdilution test (MIC); settings: E. coli DC0
Protocol: as §1, §2

[4] = tested on: Salmonella gallinarum ATCC 9184; settings: concentration 100 μg/ml; Salmonella galinarum ATCC 9184
[5] = tested on: E. coli mutant PLB3268 ompF++; settings: E. coli mutant PLB3268 ompF++ (ompF super-expressed)
From the text: (§3) The efficacy against β-lactamase formers and against multi-resistant germs is therefore due to a new type of mechanism for overcoming the penetration resistance, by means of which the ratio of active ingredient to enzyme in the bacterial cell is influenced so that not all antibiotic molecules are inactivated before they reach their target.
PLB268: ompF- was super-expressed.

[6] = tested on: Pseudomonas aeruginosa SG 137 (carbenicillin-resistant); experiment: Agar diffusion test; settings: concentration 100 μg/ml; P. aeruginosa SG 137
[7] = tested on: Salmonella gallinarum ATCC 9184; experiment: microbe, parasite or virus in culture; settings: Salmonella enterica; Salmonella gallinarum ATCC9184; read-out: MIC values, microdilution test
Protocol: as §1

[8] = tested on: E. coli DC2 (penetration mutant); settings: concentration 100 μg/ml
[9] = tested on: Pseudomonas aeruginosa ATCC 27853 (wild type); experiment: Agar diffusion test; settings: concentration 100 μg/ml; P. aeruginosa ATCC 27853
[10] = tested on: Stenotrophomonas maltophilia GN 12873; experiment: Agar diffusion test; settings: concentration 100 μg/ml
[11] = tested on: Pseudomonas aeruginosa NCTC 10662; experiment: Agar diffusion test; settings: concentration 100 μg/ml; P. aeruginosa NCTC 10662
[12] = tested on: Pseudomonas aeruginosa NPS1 (plasmid-coded β-lactamase); settings: concentration 100 μg/ml; P. aeruginosa NPS 1
[13] = tested on: Klebsiella pneumoniae SG 117; experiment: Agar diffusion test; settings: concentration 100 μg/ml
[14] = tested on: Stenotrophomonas maltophilia GN 12873; experiment: Microdilution test (MIC)
[15] = tested on: Pseudomonas aeruginosa KW 799 WT (wild type); experiment: Agar diffusion test; settings: concentration 100 μg/ml; P. aeruginosa KW799/WT
[16] = tested on: Pseudomonas aeruginosa SG 137; experiment: Microdilution test (MIC); settings: P. aeruginosa SG 137
Protocol: as §1

[17] = tested on: Pseudomonas aeruginosa ATCC 27853; experiment: Microdilution test (MIC); settings: Pseudomonas aeruginosa, ATCC27853; P. aeruginosa ATCC 27853
Protocol: as §1

[18] = tested on: Klebsiella pneumoniae ATCC 10031; experiment: Microdilution test (MIC)
Protocol: as §1

[19] = tested on: Serratia marcescens SG 621; experiment: Microdilution test (MIC)
Protocol: as §1

[20] = tested on: Pseudomonas aeruginosa NCTC 10662; experiment: Microdilution test (MIC); settings: P. aeruginosa NCTC 10662
Protocol: as §1

E. coli ATCC 25922 = experiment: Microdilution test (MIC)
Protocol: as §1

[21] = tested on: Pseudomonas aeruginosa NCTC 10701; experiment: Microdilution test (MIC); settings: Pseudomonas aeruginosa, NCTC10701; P. aeruginosa NCTC 10701
Protocol: as §1

[22] = tested on: Pseudomonas aeruginosa NCTC 10701; experiment: Agar diffusion test; settings: concentration 100 μg/ml; P. aeruginosa NCTC 10701
E. coli mutant KB5 ompC− = tested on: E. coli mutant KB5 ompC−
From the text: as §3

E. coli mutant KB4 ompF− = tested on: E. coli mutant KB4 ompF−
From the text: as §3

[23] = tested on: Stenotrophomonas maltophilia IMET 10402; experiment: Agar diffusion test; settings: concentration 100 μg/ml
E. coli DC0 (wild type) = experiment: Agar diffusion test; settings: concentration 100 μg/ml
[24] = tested on: Pseudomonas aeruginosa KW 799/61 (penetration mutant); settings: concentration 100 μg/ml; P. aeruginosa KW799/61
[25] = tested on: Pseudomonas aeruginosa ATCC 9027 (wild type); experiment: Agar diffusion test; settings: concentration 100 μg/ml; P. aeruginosa ATCC 9027
[26] = tested on: Morganella morganii SBK3 (wild)
From the text: (§4) In the indicator mutants, the synthesis of the respective siderophores, e.g. pyoverdin, pyochelin, enterobactin, aerobactin or yersiniabactin, or the biosynthesis of aromatic compounds, is blocked, or there is a lack of receptors for enterobactin, pyochelin or pyoverdin and for other important components for the bacterial transport of iron (e.g. the membrane proteins Cir, Fiu, FepA and TonB). Under conditions where there is a lack of iron, these mutants therefore cannot grow or can only grow to a very slight extent. In particular, the following indicator mutants were used: Pseudomonas aeruginosa PAO 6609, K 407, 690; E. coli AB 2847, Salmonella typhimurium enb-7, TA 270; Klebsiella pneumoniae KN 4401; Yersinia enterocolitica WAH; Proteus mirabilis 12 (wild); Proteus vulgaris 718 (wild) and Morganella morganii SBK3 (wild). […] The controls used were ferrioxamine E for the Pseudomonas strains, ferrioxamine G and enterobactin for the Salmonella strains, ferrichrome for the E. coli, Klebsiella and Y. enterocol. strains, and 3,4-dihydroxybenzylidene-2,4,6-trimethylaniline for Morganella morganii (see the above literature reference by R. Reissbrodt et al.).
(§5) The annotations + and (+) relate to non-specific promotion of growth.

[27] = tested on: Salmonella typhimurium enb-7
From the text: as §4, §5

[28] = tested on: Yersinia enterocolitica WAH; settings: Y. enterocol. WAH
From the text: as §4, §5

[29] = tested on: Proteus mirabilis 12 (wild)
From the text: as §4, §5

[30] = tested on: Pseudomonas aeruginosa K 407; settings: Pseudomonas aeruginosa K407
From the text: as §4, §5

[31] = tested on: Klebsiella pneumoniae KN 4401; settings: Klebsiella KN 4401
From the text: as §4, §5

[32] = tested on: Pseudomonas aeruginosa 690
From the text: as §4, §5

[33] = tested on: Salmonella typhimurium TA 2700
From the text: as §4, §5

[34] = tested on: Proteus vulgaris 718 (wild)
From the text: as §4, §5

[35] = tested on: Pseudomonas aeruginosa PAO 6609
From the text: as §4, §5

E. coli AB2847 tonB+ = tested on: E. coli AB2847 tonB+
[36] = tested on: E. coli mutant BR185 tonB−
[37] = Escherichia coli, read-out: MIC values, microdilution test

CC1(C)S[C@@H]2[C@H](NC(=O)[C@H](N)c3ccccc3)C(=O)N2[C@H]1C(=O)O [Ampicillin, reference compound]
MIC (E. coli DC2; [37]): 1.56 µg/mL (≈ 4.46 µM) | inhibition spot diameter in the agar diffusion test [1]: 0 mm | MIC ([2]; Pseudomonas aeruginosa, KW799WT): > 100 µg/mL | MIC ([3]; Pseudomonas aeruginosa, KW799/61, P. aeruginosa KW 799/61): 0.4 µg/mL (≈ 1.14 µM) | MIC (E. coli DC0; [37]): 6.25 µg/mL (≈ 17.9 µM) | inhibition spot diameter in the agar diffusion test [4]: 34 mm | inhibition spot diameter in agar diffusion test [5]: 17.5 mm | inhibition spot diameter in the agar diffusion test [6]: 0 mm | MIC [7]: 0.2 µg/mL (≈ 0.572 µM) | inhibition spot diameter in the agar diffusion test [8]: 32 mm | inhibition spot diameter in the agar diffusion test [9]: 0 mm | inhibition spot diameter in the agar diffusion test [10]: 0 mm | inhibition spot diameter in the agar diffusion test [11]: 0 mm | inhibition spot diameter in the agar diffusion test [12]: 0 mm | inhibition spot diameter in the agar diffusion test [13]: 19 mm | MIC ([14]; GN12873): > 100 µg/mL | inhibition spot diameter in the agar diffusion test [15]: 0 mm | MIC ([16]; Pseudomonas aeruginosa, SG137): > 100 µg/mL | MIC [17]: > 100 µg/mL | MIC ([18]; ATCC10031): 50 µg/mL (≈ 143 µM) | MIC ([19]; SG621): 25 µg/mL (≈ 71.5 µM) | MIC ([20]; Pseudomonas aeruginosa, NCTC10662): > 100 µg/mL | MIC (E. coli ATCC 25922; Escherichia coli, ATCC25922): 6.25 µg/mL (≈ 17.9 µM) | MIC [21]: > 100 µg/mL | inhibition spot diameter in the agar diffusion test [22]: 0 mm | inhibition spot diameter in agar diffusion test (E. coli mutant KB5 ompC−): 9.5 mm | inhibition spot diameter in agar diffusion test (E. coli mutant KB4 ompF−): 10 mm | inhibition spot diameter in the agar diffusion test [23]: 0 mm | inhibition spot diameter in the agar diffusion test (E. coli DC0 (wild type)): 22 mm | inhibition spot diameter in the agar diffusion test [24]: 41 mm | inhibition spot diameter in the agar diffusion test [25]: 0 mm

O=C(O)c1cc(O)c(O)c(C=NNC(=O)c2cccc(O)c2O)c1 [Substance 13, 3-formyl-4,5-dihydroxybenzoic Acid-(2,3-dihydroxy-benzhydrazone)]
Growth areas of siderophore indicator strains (diameter) [26]: 24 mm | Growth areas of siderophore indicator strains (diameter) [27]: 18 mm | Growth areas of siderophore indicator strains (diameter) [28]: 10 mm | Growth areas of siderophore indicator strains (diameter) [29]: 23 mm | Growth areas of siderophore indicator strains (diameter) [30]: 11 mm | Growth areas of siderophore indicator strains (diameter) [31]: 15 mm | Growth areas of siderophore indicator strains (diameter) [32]: 10 mm | Growth areas of siderophore indicator strains (diameter) [33]: 23 mm | Growth areas of siderophore indicator strains (diameter) [34]: 23 mm | Growth areas of siderophore indicator strains (diameter) [35]: 10 mm

CC(=O)Oc1cccc(C(=O)Nc2ccc(C(=O)N[C@@H](C(=O)N[C@@H]3C(=O)N4[C@@H]3SC(C)(C)[C@@H]4C(=O)O)c3ccccc3)cc2)c1OC(C)=O [Substance 29]
MIC values, microdilution test (E. coli DC2): 1.56 µg/mL (≈ 2.27 µM) | inhibition spot diameter in the agar diffusion test [1]: 13 mm | MIC values, microdilution test [2]: 3.12 µg/mL (≈ 4.53 µM) | MIC values, microdilution test [3]: 0.4 µg/mL (≈ 0.581 µM) | MIC values, microdilution test (E. coli DC0): 50 µg/mL (≈ 72.6 µM) | inhibition spot diameter in agar diffusion test (E. coli AB2847 tonB+): 6 mm | inhibition spot diameter in the agar diffusion test [4]: 22 mm | inhibition spot diameter in agar diffusion test [5]: 14 mm | inhibition spot diameter in the agar diffusion test [6]: 28 mm | inhibition spot diameter in agar diffusion test [36]: 0 mm | inhibition spot diameter in the agar diffusion test [8]: 28 mm | inhibition spot diameter in the agar diffusion test [10]: 19 mm | inhibition spot diameter in the agar diffusion test [12]: 12 mm | inhibition spot diameter in the agar diffusion test [13]: 15 mm | MIC values, microdilution test [14]: 12.5 µg/mL (≈ 18.1 µM) | inhibition spot diameter in the agar diffusion test [15]: 27 mm | MIC values, microdilution test [16]: 0.78 µg/mL (≈ 1.13 µM) | MIC values, microdilution test [18]: 50 µg/mL (≈ 72.6 µM) | MIC values, microdilution test [19]: 25 µg/mL (≈ 36.3 µM) | MIC values, microdilution test [20]: 12.5 µg/mL (≈ 18.1 µM) | MIC values, microdilution test (E. coli ATCC 25922): 100 µg/mL (≈ 145 µM) | inhibition spot diameter in the agar diffusion test [22]: 23 mm | inhibition spot diameter in agar diffusion test (E. coli mutant KB5 ompC−): 7 mm | inhibition spot diameter in agar diffusion test (E. coli mutant KB4 ompF−): 9.5 mm | inhibition spot diameter in the agar diffusion test [23]: 23 mm | inhibition spot diameter in the agar diffusion test (E. coli DC0 (wild type)): 22 mm | inhibition spot diameter in the agar diffusion test [24]: 33 mm | inhibition spot diameter in the agar diffusion test [25]: 21 mm
